Assays:
Format in all cases: in vivo
[1] = test system: Galinsoga parviflora (GASPA); experiment: Post-emergence field trial, herbicidal activity on GASPA; conditions: Table 2.6, 21 DAT, weed height 15-35 cm
Procedure: (§1) In the examples below, using the method of S. R. Colby (1967) “Calculating synergistic and antagonistic responses of herbicide combinations”, Weeds 15, p. 22ff., the value E, which is expected if the activity of the individual active compounds is only additive, was calculated:
(§2) [formula] • where • X=percent activity using active herbicide A at an application rate a; • Y=percent activity using active herbicide B (e.g. imazethapyr) at an application rate b; • E=expected activity (in %) by A+B at application rates a+b.
(§3) If the value found experimentally is higher than the value E calculated according to Colby, a synergistic effect is present.
(§4) On field test sites, natural weed infestation or seeded weeds were treated post-emergence of the weeds.
(§5) In the field trials, the weeds were treated as indicated below.
(§6) In the following experiments, the herbicidal activity for the individual herbicidal compositions (solo and mixture applications) was assessed at the indicated days after treatment (DAT). The assessments for the damage on undesired weeds caused by the composition was carried out using a scale from 0 to 100%, compared to the untreated control plants. Here, 0 means no damage and 100 means complete destruction of the plants. […]

[2] = test system: Amaranthus viridis (AMAVI); experiment: Post-emergence field trial, herbicidal activity on AMAVI; conditions: growth stage 16-18, height 10-15 cm, 20 DAT, 0.5% MSO
Procedure: as §1, §2, §3, §4, §5
(§7) In the following experiments, the herbicidal activity for the individual herbicidal compositions (solo and mixture applications) was assessed at the indicated days after treatment (DAT). The assessments for the damage on undesired weeds caused by the composition was carried out using a scale from 0 to 100%, compared to the untreated control plants. Here, 0 means no damage and 100 means complete destruction of the plants.
(§8) Herbicide A-1 (342 g/l) and imazethapyr-ammonium were, together with addition of 0.5% MSO (methylated seed oil) as adjuvant, formulated in water as distribution medium (water volume […]) and sprayed with commercial flat fan nozzles.

[3] = test system: Digitaria horizontalis (DIGHO); experiment: Post-emergence field trial, herbicidal activity on DIGHO; conditions: Table 2.5, 21 DAT, growth stage 24
Procedure: as §1, §2, §3, §4, §5, §6

Eleusine indica (ELEIN) = experiment: Post-emergence field trial, herbicidal activity on ELEIN; conditions: 21 DAT
Procedure: as §1, §2, §3, §4, §5, §7, §8

Ipomoea triloba (IPOTR) = experiment: Post-emergence field trial, herbicidal activity on IPOTR; conditions: 21 DAT
Procedure: as §1, §2, §3, §4, §5, §7, §8

[4] = test system: Amaranthus cruentus (AMACR); experiment: Post-emergence field trial, herbicidal activity on AMACR; conditions: height 20-25 cm, 25 DAT, 0.25 l/ha Dash MSO Max
Procedure: as §1, §2, §3, §4, §5, §6

[5] = test system: Euphorbia heterophylla (EPHHL); experiment: Post-emergence field trial, herbicidal activity on EPHHL; conditions: 21 DAT
Procedure: as §1, §2, §3, §4, §5, §7, §8

[6] = test system: Portulaca oleracea (POROL); experiment: Post-emergence field trial, herbicidal activity on POROL; conditions: growth stage 14-16, height 5-10 cm, 20 DAT, 0.5% MSO
Procedure: as §1, §2, §3, §4, §5, §6

[7] = test system: Digitaria insularis (DIGIN); experiment: Post-emergence field trial, herbicidal activity on DIGIN; conditions: Table 2.4, 21 DAT, weed height 20-40 cm
Procedure: as §1, §2, §3, §4, §5, §6

[8] = test system: Brachiaria plantaginea (BRAPL); experiment: Post-emergence field trial, herbicidal activity on BRAPL; conditions: for % herbicidal activity: Table 2.5, 21 DAT, growth stage 24
Procedure: as §1, §2, §3, §4, §5, §7, §8

[9] = test system: Spermacoce latifolia (BOILF); experiment: Post-emergence field trial, herbicidal activity on BOILF; conditions: 21 DAT
Procedure: as §1, §2, §3, §4, §5, §7, §8

[10] = test system: Amaranthus hybridus (AMACH); experiment: Post-emergence field trial, herbicidal activity on AMACH
Procedure: as §1, §2, §3, §4, §5, §7
Herbicide A-1 (342 g/I) and imazethapyr-ammonium were, together with addition of 0.25 l/ha Dash® MSO Max as adjuvant, formulated in water as distribution medium (water volume 200 l/ha) and sprayed with commercial flat fan nozzles.

Compound: CCc1cnc(C2=NC(C)(C(C)C)C(=O)N2)c(C(=O)O)c1.N (stereo not drawn) [Herbicide B-2, imazethapyr-ammonium, reference compound]
- % herbicidal activity ([1]; B-2 100 g ai/ha alone): 0%
- % herbicidal activity B-2 ([2]; B-2 100 g ai/ha solo): 22%
- % herbicidal activity ([3]; B-2 100 g ai/ha alone): 0%
- % herbicidal activity B-2 (Eleusine indica (ELEIN); ELEIN, height 20-25 cm, B-2 100 g ai/ha solo, 0.5% MSO): 0%
- % herbicidal activity (Eleusine indica (ELEIN); Table 2.7, B-2 100 g ai/ha alone, growth stage 35-61, height 3-5 cm): 10%
- % herbicidal activity B-2 (Ipomoea triloba (IPOTR); IPOTR, growth stage 35, B-2 100 g ai/ha solo, 0.5% MSO): 22%
- % herbicidal activity B-2 ([4]; B-2 100 g ai/ha solo): 58%
- % herbicidal activity B-2 ([5]; EPHHL, growth stage 35, B-2 100 g ai/ha solo, 0.5% MSO): 10%
- % herbicidal activity ([5]; Table 2.6, B-2 100 g ai/ha alone, weed height 15-35 cm): 0%
- % herbicidal activity ([5]; Table 2.7, B-2 100 g ai/ha alone, growth stage 18-65, height 5-15 cm): 20%
- % herbicidal activity B-2 ([6]; B-2 100 g ai/ha solo): 30%
- % herbicidal activity ([7]; B-2 100 g ai/ha alone): 13%
- % herbicidal activity B-2 ([8]; BRAPL, growth stage 21-25, height 10-15 cm, B-2 100 g ai/ha solo, 20 DAT, 0.5% MSO): 0%
- % herbicidal activity ([8]; B-2 100 g ai/ha alone, listed as with A-1 25 g ai/ha): 0%
- % herbicidal activity ([8]; B-2 100 g ai/ha alone, listed as with A-1 50 g ai/ha): 0%
- % herbicidal activity B-2 ([9]; BOILF, growth stage 40, B-2 100 g ai/ha solo, 0.5% MSO): 23%
- % herbicidal activity B-2 ([10]; AMACH, height 20-25 cm, B-2 100 g ai/ha solo, 25 DAT, 0.25 l/ha Dash MSO Max): 7%

Compound: CCOC(=O)COc1ccccc1Oc1nc(-n2c(=O)cc(C(F)(F)F)n(C)c2=O)c(F)cc1Cl [Herbicide A-1, ethyl 2-[2-[[3-chloro-5-fluoro-6-[3-methyl-2,6-dioxo-4-(trifluoromethyl)pyrimidin-1-yl]-2-pyridyl]oxy]phenoxy]acetate]
- % herbicidal activity ([1]; A-1 50 g ai/ha alone): 92%
- % herbicidal activity A-1 ([2]; A-1 25 g ai/ha solo): 69%
- % herbicidal activity A-1 ([2]; A-1 50 g ai/ha solo): 84%
- % herbicidal activity ([3]; A-1 50 g ai/ha alone): 50%
- % herbicidal activity A-1 (Eleusine indica (ELEIN); ELEIN, height 20-25 cm, A-1 25 g ai/ha solo, 0.5% MSO): 45%
- % herbicidal activity (Eleusine indica (ELEIN); Table 2.7, A-1 50 g ai/ha alone, growth stage 35-61, height 3-5 cm): 87%
- % herbicidal activity (Eleusine indica (ELEIN); Table 3.2, A-1 50 g ai/ha alone, weed height 20-25 cm): 55%
- % herbicidal activity A-1 (Ipomoea triloba (IPOTR); IPOTR, growth stage 35, A-1 25 g ai/ha solo, 0.5% MSO): 61%
- % herbicidal activity (Ipomoea triloba (IPOTR); Table 3.1, A-1 25 g ai/ha alone, growth stage 35): 61%
- % herbicidal activity A-1 ([4]; A-1 25 g ai/ha solo): 93%
- % herbicidal activity A-1 ([5]; EPHHL, growth stage 35, A-1 50 g ai/ha solo, 0.5% MSO): 86%
- % herbicidal activity ([5]; Table 2.6, A-1 50 g ai/ha alone, weed height 15-35 cm): 96%
- % herbicidal activity ([5]; Table 2.7, A-1 25 g ai/ha alone, growth stage 18-65, height 5-15 cm): 94%
- % herbicidal activity A-1 ([6]; A-1 50 g ai/ha solo): 58%
- % herbicidal activity ([7]; A-1 50 g ai/ha alone): 38%
- % herbicidal activity A-1 ([8]; BRAPL, growth stage 21-25, height 10-15 cm, A-1 50 g ai/ha solo, 20 DAT, 0.5% MSO): 73%
- % herbicidal activity ([8]; A-1 25 g ai/ha alone): 83%
- % herbicidal activity ([8]; A-1 50 g ai/ha alone): 93%
- % herbicidal activity A-1 ([9]; BOILF, growth stage 40, A-1 25 g ai/ha solo, 0.5% MSO): 81%
- % herbicidal activity ([9]; Table 3.1, A-1 25 g ai/ha alone, growth stage 40): 81%
- % herbicidal activity A-1 ([10]; AMACH, height 20-25 cm, A-1 25 g ai/ha solo, 25 DAT, 0.25 l/ha Dash MSO Max): 91%
- % herbicidal activity ([10]; Table 3.1, 21 DAT, A-1 50 g ai/ha alone, growth stage 35): 85%
